Key:
Assay type in all cases: in vivo
[1] = tested on: nutsedge (purple nutsedge, Cyperus rotundus); experiment: Test D pre-/postemergence plant response; conditions: Postemergence
Summary of the method: (§1)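 Both preemergence and postemergence treatments were made at the same time, with the compound in a non-phytotoxic, surfactant-containing solvent mixture. Plants grew in a greenhouse for 14–21 days before visual evaluation, scored from 0 (no effect) to 100 (complete control).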

kochia (Kochia scoparia) = experiment: Test D pre-/postemergence plant response; conditions: Postemergence
Summary of the method: as §1

[2] = tested on: signalgrass (broadleaf signalgrass, Brachiaria platyphylla); experiment: Test D pre-/postemergence plant response; conditions: Postemergence
Summary of the method: as §1

[3] = tested on: bluegrass (annual bluegrass, Poa annua); experiment: Test D pre-/postemergence plant response; conditions: Postemergence
Summary of the method: as §1

[4] = tested on: goosegrass (Eleusine indica); experiment: Test D pre-/postemergence plant response; conditions: Postemergence
Summary of the method: as §1

[5] = tested on: Surinam grass (Brachiaria decumbens); experiment: Test D pre-/postemergence plant response; conditions: Postemergence
Summary of the method: as §1

[6] = tested on: spanishneedles (Bidens bipinnata); experiment: Test D pre-/postemergence plant response; conditions: Postemergence
Summary of the method: as §1

[7] = tested on: large crabgrass (Digitaria sanguinalis); experiment: Test D pre-/postemergence plant response; conditions: Postemergence
Summary of the method: as §1

[8] = tested on: bermudagrass (Cynodon dactylon); experiment: Test D pre-/postemergence plant response; conditions: Postemergence
Summary of the method: as §1

[9] = tested on: Russian thistle (Salsola kali); experiment: Test D pre-/postemergence plant response; conditions: Postemergence
Summary of the method: as §1

[10] = tested on: nightshade (eastern black nightshade, Solanum ptycanthum); experiment: Test B pre-/postemergence plant response; conditions: Preemergence
Summary of the method: (§2)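 Compound in solvent + surfactant applied pre-em (loam/sand) or post-em (plants 2–18 cm, peat medium); greenhouse hold 13–15 days; visual 0–100 control score.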

[11] = tested on: galium (catchweed bedstraw, Galium aparine); experiment: Test B pre-/postemergence plant response; conditions: Preemergence
Summary of the method: as §2

[12] = tested on: sunflower (common oilseed sunflower, Helianthus annuus); experiment: Test B pre-/postemergence plant response; conditions: Preemergence
Summary of the method: as §2

[13] = 62 g ai/ha, scale 0 to 100 (0 no effect, 100 complete control)
[14] = 125 g ai/ha, scale 0 to 100 (0 no effect, 100 complete control)
[15] = 250 g ai/ha, scale 0 to 100 (0 no effect, 100 complete control)
[16] = 31 g ai/ha, scale 0 to 100 (0 no effect, 100 complete control)
[17] = 125 g ai/ha, scale 0 to 100, 0 no effect, 100 complete control

SMILES: CCCCn1c(-c2cc(F)cc(F)c2)ncc(C(=O)C2=C(O)C3CCC(C3)C2=O)c1=O (stereo not shown) [Compound 245]
- Plant response rating, Nutsedge, Purple ([1]; 31 g ai/ha, scale 0 to 100): 5
- Plant response rating, Nutsedge, Purple [1, 13]: 5
- Plant response rating, Nutsedge, Purple [1, 14]: 5
- Plant response rating, Nutsedge, Purple [1, 15]: 20
- Plant response rating, Kochia (kochia (Kochia scoparia); 31 g ai/ha, scale 0 to 100): 50
- Plant response rating, Kochia (kochia (Kochia scoparia); [13]): 65
- Plant response rating, Kochia (kochia (Kochia scoparia); [14]): 70
- Plant response rating, Kochia (kochia (Kochia scoparia); [15]): 75
- Plant response rating, Signalgrass ([2]; 31 g ai/ha, scale 0 to 100): 10
- Plant response rating, Signalgrass [2, 13]: 40
- Plant response rating, Signalgrass [2, 14]: 50
- Plant response rating, Signalgrass [2, 15]: 75
- Plant response rating, Bluegrass ([3]; 31 g ai/ha, scale 0 to 100): 5
- Plant response rating, Bluegrass [3, 13]: 20
- Plant response rating, Bluegrass [3, 14]: 35
- Plant response rating, Bluegrass [3, 15]: 35
- Plant response rating, Goosegrass ([4]; 31 g ai/ha, scale 0 to 100): 70
- Plant response rating, Goosegrass [4, 13]: 70
- Plant response rating, Goosegrass [4, 14]: 70
- Plant response rating, Goosegrass [4, 15]: 75
- Plant response rating, Surinam Grass ([5]; 31 g ai/ha, scale 0 to 100): 75
- Plant response rating, Surinam Grass [5, 13]: 75
- Plant response rating, Surinam Grass [5, 14]: 75
- Plant response rating, Surinam Grass [5, 15]: 75
- Plant response rating, Spanishneedles ([6]; 31 g ai/ha, scale 0 to 100): 65
- Plant response rating, Spanishneedles [6, 13]: 70
- Plant response rating, Spanishneedles [6, 14]: 70
- Plant response rating, Spanishneedles [6, 15]: 75
- Plant response rating, Crabgrass, Large ([7]; 31 g ai/ha, scale 0 to 100): 70
- Plant response rating, Crabgrass, Large [7, 13]: 70
- Plant response rating, Crabgrass, Large [7, 14]: 75
- Plant response rating, Crabgrass, Large [7, 15]: 75
- Plant response rating, Bermudagrass ([8]; 31 g ai/ha, scale 0 to 100): 80
- Plant response rating, Bermudagrass [8, 13]: 80
- Plant response rating, Bermudagrass [8, 14]: 80
- Plant response rating, Bermudagrass [8, 15]: 80
- Plant response rating, Russian Thistle ([9]; 31 g ai/ha, scale 0 to 100): 25
- Plant response rating, Russian Thistle [9, 13]: 60
- Plant response rating, Russian Thistle [9, 14]: 60
- Plant response rating, Russian Thistle [9, 15]: 70
- Plant response rating, Nightshade [10, 16]: 98
- Plant response rating, Nightshade [10, 13]: 100
- Plant response rating, Nightshade [10, 17]: 100
- Nightshade plant response rating ([10]; 250 g ai/ha, 0 to 100 scale): 100
- Plant response rating, Galium [11, 16]: 20
- Plant response rating, Galium [11, 13]: 60
- Plant response rating, Galium [11, 17]: 95
- Galium plant response rating ([11]; 250 g ai/ha, 0 to 100 scale): 95
- Plant response rating, Sunflower [12, 16]: 45
- Plant response rating, Sunflower [12, 13]: 70
- Plant response rating, Sunflower [12, 17]: 80
- Sunflower plant response rating ([12]; 250 g ai/ha, 0 to 100 scale): 95

From patent US8952024B2, “Herbicidal pyrimidone derivatives” (E I du Pont de Nemours and Company, priority 2009, dated 2015)
